Consider 1 compound from patent publication US10085976B2, “Pharmaceutical composition for preventing or treating neurodegenerative diseases” (AJOU UNIVERSITY INDUSTRY-ACADEMIC COOPERATION FOUNDATION, priority 2015, dated 2018).

For series [1], the system named is BV-2 cells. Put plainly: Phagocytosis assay with fluorescent microspheres, aggregated α-syn-treated BV-2 cells. The note with it: 20 μM pre-incubation 30 minutes, then 1 NM of aggregated α-syn and fluorescent microspheres for 12 hours, FIG. 4D. It counts as cell-based, murine. On the procedure: (§1) FIGS. 4D and 4E are graphs showing phagocytic activity after pre-incubating BV-2 cell and rat primary microglia with 20 μM of NSC87877 as an SHP-1 inhibitor for 30 minutes, and then incubating them with 1 NM of aggregated α-syn and fluorescent microspheres for 12 hours. ** P<0.01 represents a comparison with the control group.
(§2) Further, BV-2 cells, a murine microglial cell line, were grown in Dulbecco's modified Eagle's Medium (DMEM) supplemented with 5% fetal bovine serum (FBS) and maintained at 37° C. in a humidified atmosphere of 5% CO2. Rat primary microglia from the cerebral cortices of 1-day-old Sprague-Dawley rats were cultured as described in the known literature (Kim, K. S., et al., 2012. J Biol Chem. 287, 24862-72.).
(§3) Briefly, BV-2 cells (5×10^4 cells per well) were cultured in a 12 well plate overnight. The medium was then removed and replaced with fresh DMEM containing 5% FBS. […] The five random fields of cells (>100 cells) were counted under a confocal microscope (Zeiss, Germany). Percentage of phagocytic cells was analyzed by a known method (Park, J. Y., et al., 2008. Glia. 56, 1215-23.). For cell viability assay, BV-2 cells were treated with 1 μM of aggregated α-syn for 12 hours, and then LDH release was measured using an LDH-cytotoxicity assay kit (Biovision, CA) according to the manufacturer's instructions. […]

Another series has as its system rat primary microglia. Kind of series: Phagocytosis assay with fluorescent microspheres, aggregated α-syn-treated rat primary microglia. It counts as cell-based. The settings on record: 20 μM pre-incubation 30 minutes, then 1 NM of aggregated α-syn and fluorescent microspheres for 12 hours, FIG. 4E. On the procedure:
as §1, §2, §3

In series [2] the test system is BV-2 cells. Kind of series: α-syn propagation, two-chamber co-culture with α-syn-overexpressed SH-SY5Y cells, immunostaining (BV-2). It counts as cell-based, murine. The note with it: co-culture 12 hours, vs PBS-treated group, FIGS. 10B, 10E. On the procedure:
FIGS. 10B and 10E are images and graphs showing that α-syn propagation was reduced by treatment of SHP-1/2 inhibitor, NSC87877. *** P<0.001 represents a comparison with the PBS-treated group.
(§4) The prepared SHP-1 knockdown SH-SY5Y dopaminergic neuronal cell lines (SHP-1 KD1 and SHP-1 KD2) were co-cultured with α-syn-overexpressed SH-SY5Y dopaminergic neuronal cell line using the two-chamber system for 12 hours. The co-culture is briefly summarized as follows. SH-SY5Y or BV2 or OLN93 cell was seeded at a density of 4×10^4 cell per well on a 12-well cover glass, and α-syn-overexpressed SH-SY5Y cell was seeded at a density of 4×10^4 cell per well on a 12-well transwell. Each of the cells was incubated for one day, and then the transwell (α-syn-overexpressed SH-SY5Y cell) was transferred to the 12-well cover glass (SH-SY5Y cell), followed by co-culture for 12 hours, and then immunostaining.

The next series relates to SH-SY5Y cells. Kind of series: α-syn propagation, two-chamber co-culture with α-syn-overexpressed SH-SY5Y cells, immunostaining (SH-SY5Y). It is filed as cell-based, human. The note with it: co-culture 12 hours, vs PBS-treated group, FIGS. 10I, 10K. As for the experimental part: FIGS. 10I and 10K are images and graphs showing that propagation of aggregated α-syn is reduced in SH-SY5Y cell line treated with the SHP-1,2 inhibitor NSC87877, similar to the SHP-1 knockdown cells. *** P<0.001 represents a comparison with the PBS-treated group.
as §4

Another series deals with OLN 93 cell line. Kind of series: α-syn propagation, two-chamber co-culture with α-syn-overexpressed SH-SY5Y cells, immunostaining (OLN 93). It is filed as cell-based. The note with it: OLN 93 cells; co-culture 12 hours; vs PBS-treated group; FIGS. 10N, 10P. On the procedure:
FIGS. 10N and 10P are images and graphs showing that propagation of α-syn is reduced in OLN 93 cell line treated with the SHP-1,2 inhibitor NSC87877. *** P<0.001 represents a comparison with the PBS-treated group.
as §4

A further series has as its system rat microglia. Kind of series: α-syn propagation, two-chamber co-culture with α-syn-overexpressed SH-SY5Y cells, immunostaining (primary microglia). It is filed as cell-based. The settings on record: vs PBS-treated group, FIGS. 10C, 10F. On the procedure: FIGS. 10C and 10F are images and graphs showing that α-syn propagation was reduced in rat microglia by treatment of the SHP-1/2 inhibitor, NSC87877. Scale bar indicates 20 μm, and *** P<0.001 represents a comparison with the PBS-treated group.
as §4

Series [3] relates to differentiated SH-SY5Y cells. Kind of series: LDH release cytotoxicity assay, aggregated α-syn on differentiated SH-SY5Y dopaminergic neurons. It counts as cell-based, human. The note with it: 1 μM aggregated α-syn and 50 μM inhibitor for 2 days, FIG. 12B. An excerpt: FIG. 12B is a graph showing the effect of the SHP-1/2 inhibitor, NSC87877 on cytotoxicity of aggregated α-syn in undifferentiated SH-SY5Y cells and differentiated SH-SY5Y cells.
FIGS. 12C and 12D are images and graphs showing the effect of the SHP-1/2 inhibitor, NSC87877 on cytotoxicity of aggregated α-syn in differentiated SH-SY5Y cells. ** P<0.01 represents a comparison with the PBS-treated SHSY5Y.
To differentiate SH-SY5Y cells to dopaminergic neurons, SH-SY5Y cells seeded in a culture plate were cultured in a medium containing 50 μM of retinoic acid for 5 days. In this regard, the medium was replaced by a fresh medium containing 50 μM of retinoic acid at 3 days, 4 days, and 5 days after initiation of the culture. Further, in order to assess cytotoxicity, the differentiated SH-SY5Y dopaminergic neurons and undifferentiated SH-SY5Y dopaminergic neurons were seeded in 12-well, respectively, followed by incubation for one day. Thereafter, they were cultured in a medium containing 1 μM of aggregated α-syn and 50 μM of the SHP-1/-2 inhibitor NSC87877 for 2 days, and LDH (lactate dehydrogenase) release assay was performed according to the manufacturer's instructions.
(In general: Release of lactate dehydrogenase indicates damage to the cell membrane.)

In series [4] the test system is A53Tα-syn-overexpressed SHSY5Y cells. Put plainly: Intracellular aggregation of eGFP-tagged A53T α-syn in co-culture, confocal microscopy. The note with it: co-culture with α-syn-overexpressed SHSY5Y, 5 days after treatment; FIG. 14C. It is filed as cell-based, human. On the procedure:
FIG. 14C is an image of confocal microscopy after differentiation with retinoic acid for 5 days in the co-culture of A53Tα-syn-overexpressed SHSY5Y and α-syn-overexpressed SHSY5Y under treatment of the SHP-1/2 inhibitor, NSC87877. Scale bar indicates 20 μm.
First, eGPF-tagged A53Tα-syn-overexpressed SHSY5Y cell line was prepared using lentivirus, and the prepared eGPP-tagged A53Tα-syn-overexpressed SHSY5Y cell line and α-syn-overexpressed SHSY5Y cell line were mixed, followed by co-culture. […] At 5 days after the co-culture, intracellular distribution of eGFP-tagged A53Tα-syn was observed under confocal microscopy.
In this regard, the SHP-1/2 inhibitor, NSC87877 was treated and A53Tα-syn-overexpressed SHSY5Y cell line and α-syn-overexpressed SHSY5Y cell line were mixed, followed by co-culture. At 5 days after NSC 87877 treatment and co-culture, intracellular distribution of eGFP-tagged A53Tα-syn was observed under confocal microscopy.

Turning to `O=S(=O)(O)c1ccc2cc(N=Nc3cc(S(=O)(=O)O)c4cccnc4c3O)ccc2c1` [NSC87877], the “Effect on inhibition of microglial phagocytosis by aggregated α-syn” value in the series with BV-2 cells [1] and in the series with rat primary microglia was “efficiently rescued the inhibitory effect of aggregated α-syn on microglial phagocytosis” each time. The α-syn propagation result in the series on BV-2 cells [2] is “α-syn propagation was also reduced”; with SH-SY5Y cells, “α-syn propagation was also reduced”; with OLN 93 cell line it was “α-syn propagation was also reduced”; with rat microglia it was “reduced α-syn propagation was observed”. The “Neurotoxicity (cytotoxicity, LDH release) by aggregated α-syn” value in series [3] is “neurotoxicity by aggregated α-syn was reduced”. For the same compound, the “Intracellular aggregation of eGFP-tagged A53Tα-syn (eGFP distribution)” value in series [4] is reported as “no aggregation in the cells”.
